According to patent US20230141101A1, “PDE4 INHIBITOR COMPOUND AND MEDICAL USE THEREOF” (Suzhou Longbotai Pharmaceuticals Co., Ltd., priority 2020, published 2023):

Columns and labels:
Format in all cases: biochemical
Details in all cases: 20 nM
[1] = molecular target: T1, PDE4B1 (Homo sapiens, UniProt Q07343); experiment: PDE4 inhibitory activity assay (FAM-cAMP enzymatic reaction), PDE4B1
T1 construct: purchased BPS 60041
Procedure: (§1) The compounds of the present disclosure were tested for their inhibitory activity (IC50 value) against PDE4A1A, PDE4B1, and PDE4D2.
(§2) Positive compound: Trequinsin (Sigma, Cat No. T20S7).
(§3) Instrument: Wallac Victor Muti-lable counter (Pekin Elmer) Steps of assay:
(§4) PDE enzymatic reaction; • 1) PDE was dissolved in 1× reaction solution to prepare 2× enzyme solution; • 2) FAM-cAMP was dissolved in 1× reaction solution to prepare 2× substrate solution; • 3) Corresponding volume of the compound in DMSO was transferred to the reaction plate through Echo 550; • 4) 2× enzyme solution was added into the corresponding wells of the reaction plate and incubated with the compound solution for 15 minutes at room temperature; • 5) 2× substrate solution was added into the corresponding well of the reaction plate to initiate the reaction; • 6) After the reaction plate was incubated at room temperature for 30 min, the reaction was terminated by adding reaction stopping solution. The reaction plate was incubated at room temperature for another 60 minutes;
(§5) Inhibition rates were calculated with Excel; and IC50 for each compound was calculated with Graphpad prism.

[2] = molecular target: PDE4D2 (Homo sapiens, UniProt Q08499); experiment: PDE4 inhibitory activity assay (FAM-cAMP enzymatic reaction), PDE4D2
Procedure: as §1, §2, §3, §4, §5

[3] = molecular target: T2, PDE4A1A (Homo sapiens, UniProt P27815); experiment: PDE4 inhibitory activity assay (FAM-cAMP enzymatic reaction), PDE4A1A
T2 construct: purchased BPS 60040
Procedure: as §1, §2, §3, §4, §5

Chain of PDE4D2 (Q08499 303-809): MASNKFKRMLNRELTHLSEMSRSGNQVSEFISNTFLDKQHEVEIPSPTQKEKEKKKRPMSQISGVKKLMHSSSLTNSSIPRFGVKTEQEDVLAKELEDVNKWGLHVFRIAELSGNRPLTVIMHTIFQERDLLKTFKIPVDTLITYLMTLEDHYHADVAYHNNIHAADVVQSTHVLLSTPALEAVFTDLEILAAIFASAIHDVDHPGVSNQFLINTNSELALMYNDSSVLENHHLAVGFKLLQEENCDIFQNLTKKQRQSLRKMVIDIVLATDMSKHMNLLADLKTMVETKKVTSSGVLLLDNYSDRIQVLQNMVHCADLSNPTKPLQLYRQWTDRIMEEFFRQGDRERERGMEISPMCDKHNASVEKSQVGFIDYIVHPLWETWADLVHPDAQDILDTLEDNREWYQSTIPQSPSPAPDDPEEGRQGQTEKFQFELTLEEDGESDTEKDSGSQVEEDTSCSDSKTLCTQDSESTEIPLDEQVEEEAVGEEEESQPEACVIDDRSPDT
T2 sequence (P27815 1-647 isoform P27815-4): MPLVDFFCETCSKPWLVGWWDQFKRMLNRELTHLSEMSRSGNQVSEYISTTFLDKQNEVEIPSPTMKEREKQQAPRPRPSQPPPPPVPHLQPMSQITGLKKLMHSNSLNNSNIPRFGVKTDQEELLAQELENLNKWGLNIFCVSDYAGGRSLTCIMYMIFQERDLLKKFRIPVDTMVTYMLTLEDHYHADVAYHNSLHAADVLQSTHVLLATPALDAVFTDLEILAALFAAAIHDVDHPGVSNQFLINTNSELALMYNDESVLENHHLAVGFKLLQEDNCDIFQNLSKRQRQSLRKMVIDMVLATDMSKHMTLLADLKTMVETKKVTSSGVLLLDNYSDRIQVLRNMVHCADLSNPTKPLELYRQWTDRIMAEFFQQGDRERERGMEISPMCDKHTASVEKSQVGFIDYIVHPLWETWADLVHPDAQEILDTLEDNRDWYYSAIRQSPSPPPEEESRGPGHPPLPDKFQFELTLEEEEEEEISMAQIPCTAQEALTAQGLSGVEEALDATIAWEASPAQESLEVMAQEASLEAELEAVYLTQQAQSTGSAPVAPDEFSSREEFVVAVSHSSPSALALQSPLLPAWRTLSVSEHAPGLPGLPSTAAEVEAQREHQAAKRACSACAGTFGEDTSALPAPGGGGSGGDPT
T1 sequence (Q07343 whole entry): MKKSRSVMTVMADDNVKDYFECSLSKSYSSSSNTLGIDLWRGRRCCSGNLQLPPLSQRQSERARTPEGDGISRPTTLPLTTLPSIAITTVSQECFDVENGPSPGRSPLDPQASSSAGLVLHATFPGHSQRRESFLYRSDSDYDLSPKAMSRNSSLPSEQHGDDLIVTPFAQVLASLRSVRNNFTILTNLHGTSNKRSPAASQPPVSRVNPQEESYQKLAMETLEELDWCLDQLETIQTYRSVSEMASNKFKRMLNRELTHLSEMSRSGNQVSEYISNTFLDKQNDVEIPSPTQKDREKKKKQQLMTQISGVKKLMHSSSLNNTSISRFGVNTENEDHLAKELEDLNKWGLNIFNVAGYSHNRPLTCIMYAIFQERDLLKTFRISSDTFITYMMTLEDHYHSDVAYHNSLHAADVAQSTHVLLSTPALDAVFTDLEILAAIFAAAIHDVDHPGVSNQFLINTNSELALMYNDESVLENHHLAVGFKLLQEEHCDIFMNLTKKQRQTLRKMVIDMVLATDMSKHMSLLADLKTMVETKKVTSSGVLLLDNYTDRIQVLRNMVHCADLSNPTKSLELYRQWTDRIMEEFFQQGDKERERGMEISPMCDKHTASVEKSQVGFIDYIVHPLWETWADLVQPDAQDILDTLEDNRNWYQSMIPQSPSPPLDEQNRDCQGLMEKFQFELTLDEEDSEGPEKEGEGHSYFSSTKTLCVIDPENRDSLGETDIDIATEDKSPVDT

| PDE4 B1 inhibitory effect at 20 nM [1] | PDE4 D2 inhibitory effect at 20 nM [2] | PDE4 A1 inhibitory effect at 20 nM [3] | Compound |
| --- | --- | --- | --- |
| + | + | + | CCOc1nc([C@@H](CS(C)(=O)=O)n2c(=O)[nH]c3c(C)c(-c4cc(F)ccc4OC)cnc32)ccc1OC [Ex. 44, (S)-6-(5-fluoro-2-methoxyphenyl)-3-(1-(6-ethoxy-5-methoxypyridin-2-yl)-2-(methylsulfonyl)ethyl)-7-methyl-1H-imidazo[4,5-b]pyridin-2(3H)-one] |
| + | + | + | CCOc1nc([C@@H](CS(C)(=O)=O)n2c(=O)[nH]c3c(C)c(-c4ccc(F)cc4OC)cnc32)ccc1OC [Ex. 45, (S)-6-(4-fluoro-2-methoxyphenyl)-3-(1-(6-ethoxy-5-methoxypyridin-2-yl)-2-(methylsulfonyl)ethyl)-7-methyl-1H-imidazo[4,5-b]pyridin-2(3H)-one] |
| + | + | + | CCOc1nc([C@@H](CS(C)(=O)=O)n2c(=O)[nH]c3c(C)c(-c4c(F)cccc4OC)cnc32)ccc1OC [Ex. 46, (S)-6-(6-fluoro-2-methoxyphenyl)-3-(1-(6-ethoxy-5-methoxypyridin-2-yl)-2-(methylsulfonyl)ethyl)-7-methyl-1H-imidazo[4,5-b]pyridin-2(3H)-one] |
| − | − | − | CCOc1nc([C@H](CS(C)(=O)=O)n2c(=O)n(CC)c3c(C)c(-c4ccccc4)cnc32)ccc1OC [Ex. 47, (R)-3-(1-(6-ethoxy-5-methoxypyridin-2-yl)-2-(methylsulfonyl)ethyl)-1-ethyl-7-methyl-6-phenyl-1H-imidazo[4,5-b]pyridin-2(3H)-one] |
| + | + | + | CCOc1nc([C@@H](CS(C)(=O)=O)n2c(=O)n(CC)c3c(C)c(-c4ccc(F)cc4)cnc32)ccc1OC [Ex. 48, (S)-3-(1-(6-ethoxy-5-methoxypyridin-2-yl)-2-(methylsulfonyl)ethyl)-1-ethyl-6-(4-fluorophenyl)-7-methyl-1H-imidazo[4,5-b]pyridin-2(3H)-one] |
| − | − | − | CCOc1nc([C@H](CS(C)(=O)=O)n2c(=O)n(CC)c3c(C)c(-c4ccc(F)cc4)cnc32)ccc1OC [Ex. 49, (R)-3-(1-(6-ethoxy-5-methoxypyridin-2-yl)-2-(methylsulfonyl)ethyl)-1-ethyl-6-(4-fluorophenyl)-7-methyl-1H-imidazo[4,5-b]pyridin-2(3H)-one] |
| + | + | + | CCOc1nc([C@@H](CS(C)(=O)=O)n2c(=O)n(CC)c3c(C)c(-c4ccccc4C)cnc32)ccc1OC [Ex. 50, (S)-3-(1-(6-ethoxy-5-methoxypyridin-2-yl)-2-(methylsulfonyl)ethyl)-1-ethyl-7-methyl-6-(o-methylphenyl)-1H-imidazo[4,5-b]pyridin-2(3H)-one] |
| + | + | + | CCOc1nc([C@@H](CS(C)(=O)=O)n2c(=O)n(CC(F)(F)F)c3c(C)c(-c4ccccc4F)cnc32)ccc1OC [Ex. 51, (S)-3-(1-(6-ethoxy-5-methoxypyridin-2-yl)-2-(methylsulfonyl)ethyl)-6-(2-fluorophenyl)-7-methyl-1-(2,2,2-trifluoroethyl)-1H-imidazo[4,5-b]pyridin-2(3H)-one] |
| − | − | − | CCOc1nc([C@H](CS(C)(=O)=O)n2c(=O)n(CC(F)(F)F)c3c(C)c(-c4ccccc4F)cnc32)ccc1OC [Ex. 52, (R)-3-(1-(6-ethoxy-5-methoxypyridin-2-yl)-2-(methylsulfonyl)ethyl)-6-(2-fluorophenyl)-7-methyl-1-(2,2,2-trifluoroethyl)-1H-imidazo[4,5-b]pyridin-2(3H)-one] |
| + | + | + | CCOc1nc([C@@H](CS(C)(=O)=O)n2c(=O)n(CC(F)(F)F)c3c(C)c(-c4ccccc4)cnc32)ccc1OC [Ex. 53, (S)-3-(1-(6-ethoxy-5-methoxypyridin-2-yl)-2-(methylsulfonyl)ethyl)-7-methyl-6-phenyl-1-(2,2,2-trifluoroethyl)-1H-imidazo[4,5-b]pyridin-2(3H)-one] |
| − | − | − | CCOc1nc([C@H](CS(C)(=O)=O)n2c(=O)n(CC(F)(F)F)c3c(C)c(-c4ccccc4)cnc32)ccc1OC [Ex. 54, (R)-3-(1-(6-ethoxy-5-methoxypyridin-2-yl)-2-(methylsulfonyl)ethyl)-7-methyl-6-phenyl-1-(2,2,2-trifluoroethyl)-1H-imidazo[4,5-b]pyridin-2(3H)-one] |
| + | + | + | CCOc1nc([C@@H](CS(C)(=O)=O)n2c(=O)n(CC(F)(F)F)c3c(C)c(-c4ccccc4C)cnc32)ccc1OC [Ex. 55, (S)-3-(1-(6-ethoxy-5-methoxypyridin-2-yl)-2-(methylsulfonyl)ethyl)-7-methyl-6-(o-methylphenyl)-1-(2,2,2-trifluoroethyl)-1H-imidazo[4,5-b]pyridin-2(3H)-one] |
| + | + | + | CCOc1nc([C@@H](CS(C)(=O)=O)n2c(=O)n(CC(F)F)c3c(C)c(-c4ccccc4F)cnc32)ccc1OC [Ex. 56, (S)-1-(2,2-difluoroethyl)-3-(1-(6-ethoxy-5-methoxypyridin-2-yl)-2-(methylsulfonyl)ethyl)-6-(2-fluorophenyl)-7-methyl-1H-imidazo[4,5-b]pyridin-2(3H)-one] |
| + | + | + | CCOc1nc([C@@H](CS(C)(=O)=O)n2c(=O)n(CC(F)F)c3c(C)c(-c4ccccc4)cnc32)ccc1OC [Ex. 57, (S)-1-(2,2-difluoroethyl)-3-(1-(6-ethoxy-5-methoxypyridin-2-yl)-2-(methylsulfonyl)ethyl)-7-methyl-6-phenyl-1H-imidazo[4,5-b]pyridin-2(3H)-one] |
| + | + | + | CCOc1nc([C@@H](CS(C)(=O)=O)n2c(=O)n(CC(F)F)c3c(C)c(-c4ccc(F)cc4)cnc32)ccc1OC [Ex. 58, (S)-1-(2,2-difluoroethyl)-3-(1-(6-ethoxy-5-methoxypyridin-2-yl)-2-(methylsulfonyl)ethyl)-6-(4-fluorophenyl)-7-methyl-1H-imidazo[4,5-b]pyridin-2(3H)-one] |
| + | + | + | CCOc1nc([C@@H](CS(C)(=O)=O)n2c(=O)n(CC(F)F)c3c(C)c(-c4ccccc4C)cnc32)ccc1OC [Ex. 59, (S)-1-(2,2-difluoroethyl)-3-(1-(6-ethoxy-5-methoxypyridin-2-yl)-2-(methylsulfonyl)ethyl)-7-methyl-6-(o-methylphenyl)-1H-imidazo[4,5-b]pyridin-2(3H)-one] |
| + | + | + | CCOc1nc([C@@H](CS(C)(=O)=O)n2c(=O)[nH]c3c(C)c(-c4ccccc4F)cnc32)ccc1OC(F)F [Ex. 60, (S)-3-(1-(5-(difluoromethoxy)-6-ethoxypyridin-2-yl)-2-(methylsulfonyl)ethyl)-6-(2-fluorophenyl)-7-methyl-1H-imidazo[4,5-b]pyridin-2(3H)-one] |
| + | + | + | CCOc1nc([C@@H](CS(C)(=O)=O)n2c(=O)[nH]c3c(C)c(-c4ccccc4)cnc32)ccc1OC(F)F [Ex. 61, (S)-3-(1-(5-(difluoromethoxy)-6-ethoxypyridin-2-yl)-2-(methylsulfonyl)ethyl)-7-methyl-6-phenyl-1H-imidazo[4,5-b]pyridin-2(3H)-one] |
| − | − | − | CCOc1nc([C@H](CS(C)(=O)=O)n2c(=O)[nH]c3c(C)c(-c4ccccc4)cnc32)ccc1OC(F)F [Ex. 62, (R)-3-(1-(5-(difluoromethoxy)-6-ethoxypyridin-2-yl)-2-(methylsulfonyl)ethyl)-7-methyl-6-phenyl-1H-imidazo[4,5-b]pyridin-2(3H)-one] |
| + | + | + | CCOc1nc([C@@H](CS(C)(=O)=O)n2c(=O)[nH]c3c(C)c(-c4ccc(F)cc4)cnc32)ccc1OC(F)F [Ex. 63, (S)-3-(1-(5-(difluoromethoxy)-6-ethoxypyridin-2-yl)-2-(methylsulfonyl)ethyl)-6-(4-fluorophenyl)-7-methyl-1H-imidazo[4,5-b]pyridin-2(3H)-one] |
